The values below come from paper PMC4658208 (Journal of medicinal chemistry, 2015).

For one series, the system named is H. influenzae acrB. The experiment in a line: Antibacterial activity. The series is classed as cell-based, Haemophilus influenzae. As to conditions: efflux-negative strain.
In series [1] the test system is rabbit reticulocytes, eukaryotic TT. The experiment in a line: Eukaryotic TT assay using rabbit reticulocytes. The class given is biochemical. As to conditions: read-out: IC50 eukaryotic TT assay, data not shown.
Series [2] concerns S30 extracts of E. coli, coupled Transcription-Translation (RNA polymerase).
For series [3] the following is noted: logD7.4.
The conditions of series [4]: equilibrium solubility.
Series [5] relates to S30 extracts of E. coli, coupled Transcription-Translation (RNA polymerase). As to conditions: high-throughput screen hit; cited from earlier work.
For series [6] the following is noted: cited from earlier work.

pIC50: −log10 of the molar value.

As for “3,5-dimethyl-N-(2-(4-(4-methylbenzyl)piperidin-1-yl)-3,4-dioxocyclobut-1-enyl)isoxazole-4-sulfonamide [compound 1]”, in the series with H. influenzae acrB, the “MIC H. influenzae acrB” value came out at 200 µM. For the same compound, the pIC50 in series [1] is less than 4.00; in series [2] (read-out: IC50 Eco-TT, E. coli coupled transcription-translation assay), 6.55. In series [3], this compound yielded a logD of 0.1. Besides, the “fu, compound fraction unbound to human plasma protein” value (human plasma, minimum detection level 1%) is on record as less than 1%. Besides, the Solubility in series [4] is more than 1000 µM. In addition, the “half maximal inhibitory concentration (IC50), TT assay” value in series [5] is recorded as “sub-micromolar”.

As to `O=c1c(NS(=O)(=O)c2ccccc2)c(N2CCC(Cc3ccccc3)CC2)c1=O` [compound 2, N-(2-(4-benzylpiperidin-1-yl)-3,4-dioxocyclobut-1-enyl)benzenesulfonamide], the “reduction in activity/potency in the TT assay” value in series [2] (compared to compound 1) was 7 fold. Turning to `Cc1nn(C(F)F)cc1S(=O)(=O)Nc1c(N2CCC(Cc3ccccc3)CC2)c(=O)c1=O` [compound 3, N-(2-(4-benzylpiperidin-1-yl)-3,4-dioxocyclobut-1-enyl)-1-(difluoromethyl)-3-methyl-1H-pyrazole-4-sulfonamide], the “biochemical activity in TT assay, in words” value (from here on “biochemical activity”) in series [2] is listed as “biochemically active”. `Cc1noc(C)c1C(=O)Nc1c(N2CCC(Cc3ccccc3)CC2)c(=O)c1=O` [compound 4, N-(2-(4-benzylpiperidin-1-yl)-3,4-dioxocyclobut-1-enyl)-3,5-dimethylisoxazole-4-carboxamide]: the “biochemical activity” value in series [2] is “inactive”.

For the compound `Cc1noc(C)c1S(=O)(=O)Nc1c(N2CCC(C)CC2)c(=O)c1=O` [compound 5, 3,5-dimethyl-N-(2-(4-methylpiperidin-1-yl)-3,4-dioxocyclobut-1-enyl)isoxazole-4-sulfonamide], the “biochemical activity” value in series [2] is “inactive”.

As for `Cc1noc(C)c1S(=O)(=O)Nc1c(N2CCC(c3ccccc3)CC2)c(=O)c1=O` [compound 6, N-(3,4-dioxo-2-(4-phenylpiperidin-1-yl)cyclobut-1-enyl)-3,5-dimethylisoxazole-4-sulfonamide], the “biochemical activity” value in series [2] is “much less active”. Regarding `Cc1noc(C)c1S(=O)(=O)Nc1c(N2CCC(NCc3ccc(C(F)(F)F)cc3)CC2)c(=O)c1=O` [compound 14, N-(3,4-dioxo-2-(4-(4-(trifluoromethyl)benzylamino)piperidin-1-yl)cyclobut-1-enyl)-3,5-dimethylisoxazole-4-sulfonamide], the “improvement of free fraction (fu)” value (compound 14 versus compound 8) is reported as 7 fold. Also, the “reduction of free fraction” value (compound 14 versus compound 13) is reported as “four”. Take `Cc1noc(C)c1S(=O)(=O)Nc1c(N2CCC(N(C)CC3CCCCC3)CC2)c(=O)c1=O` [compound 17, N-(2-(4-((cyclohexylmethyl)(methyl)amino)piperidin-1-yl)-3,4-dioxocyclobut-1-enyl)-3,5-dimethylisoxazole-4-sulfonamide]: the “biochemical activity” value in series [2] was “inactive”. Regarding myxopyronin, the “plasma protein binding, in words” value in series [6] is reported as “highly plasma protein bound”.

One may read the pIC50 as −log10 of the IC50, conventionally taken in molar units. Broadly, the logD is lipophilicity at a set pH, counting ionised and neutral species. The term Solubility denotes the concentration that dissolves in the medium under given conditions. Low values mean a poorly soluble substance, high ones a readily soluble substance.
